PMC9387934, “Randomized single oral dose phase 1 study of safety, tolerability, and pharmacokinetics of Iminosugar UV-4 Hydrochloride (UV-4B) in healthy subjects” (PLoS Neglected Tropical Diseases, 2022)
Structures can show the parent of a compound that is named as a salt. Where two headings read alike, the source gives them in different places.

How the values were obtained:
[1] = test system: CYP2D6; design: method as in Investigator’s Brochure (IB); settings: in vitro; ref Investigator’s Brochure (IB); cited from earlier work
[2] = test system: CYP3A4/5; design: method as in Investigator’s Brochure (IB); settings: ref Investigator’s Brochure (IB), cited from earlier work
[3] = test system: CYP2C19; design: method as in Investigator’s Brochure (IB); settings: in vitro; ref Investigator’s Brochure (IB); cited from earlier work
[4] = test system: CYP2C8; design: method as in Investigator’s Brochure (IB); settings: in vitro; ref Investigator’s Brochure (IB); cited from earlier work
[5] = test system: CYP2B6; design: method as in Investigator’s Brochure (IB); settings: ref Investigator’s Brochure (IB), cited from earlier work
[6] = cited from earlier work
[7] = design: method as in Investigator’s Brochure (IB); settings: mice, up to 250 mg/kg TID (750 mg/kg/day); ref Investigator’s Brochure (IB); cited from earlier work
[8] = test system: human ether-a-go-go-related gene potassium channel; settings: at UV-4 concentration more than 20-fold higher than expected at the planned ceiling dose in humans; ref Investigator’s Brochure (IB); cited from earlier work
[9] = design: method as in Investigator’s Brochure (IB); settings: beagle dogs, single dose of 400 mg/kg; ref Investigator’s Brochure (IB); cited from earlier work
[10] = cited from earlier work; remark: listed apart in the source
[11] = rat, cited from earlier work
[12] = Seven-day repeat dose non-GLP study in rats (UV4-COV-0045); format: in vivo, rat; settings: for a 60 kg human
Description: The seven-day repeat dose study in rats was conducted at 10 mg/kg/dose TID (30 mg/kg/day), 25 mg/kg/dose TID (75 mg/kg/day), and 60 mg/kg/dose TID (180 mg/kg/day).
At 10 mg/kg/dose, mild to moderate clinical hematology and clinical chemistry changes and histopathological changes in the gastrointestinal tract (GI) similar to dogs and mice were observed; therefore this dose exceeded the no observed effect level (NOEL). At […]
60 mg/kg/dose there were similar findings to mice and dogs but a unique finding of possible […]
skin, paws and/or feet. These findings appeared within 120 minutes of treatment with the first or second daily dose 60 mg/kg/dose (TID) on Day 1 or Day 2. This response was transient and self-limiting, and was not observed after Day 2 in either the single or repeated doses. […]
The inverted AST/ALT ratio […]
and lymphocyte depletion were reversible. Thymus weight decrease in females was reversible but thymus weight decreases in males were not. However, because the apparent […]
microscopic thymus findings, thymus weight differences at the recovery necropsy were considered not toxicologically important. In mice at 25 mg/kg/dose (75 mg/kg/day) there were decreased thymus weights (males), follicular epithelium vacuolation in the thyroid, and lymphoid depletion of the thymus (males). […]
Daily exposure [calculated as 3 x AUC(0-8)] is estimated at 32,820 ng•h/mL. […]

[13] = dog, 2 TID mg/kg, Day 28 (Recovery)
[14] = dog, 10 TID mg/kg (NOAEL), Day 28 (Recovery)
[15] = dogs, 10 mg/kg/dose TID, ref Investigator’s Brochure (IB)
[16] = mice, Day 14, at NOAEL 300 mg/kg/day, ref Investigator’s Brochure (IB)
[17] = mouse, 25 TID mg/kg, Day 28 (Recovery)
[18] = mouse, 25 TID mg/kg, dosing phase (Day 14)
[19] = mouse, 100 TID mg/kg (NOAEL), Day 28 (Recovery)

## COCCCCCCCCCN1C[C@H](O)[C@@H](O)[C@H](O)[C@H]1CO [UV-4, N-(9’-methoxynonyl)-1-deoxynojirimycin]
[1]
  Direct inhibition of CYP2D6: No clinically relevant direct inhibition
[2]; midazolam 1’-hydroxylase
  Direct inhibition of CYP3A4/5: No clinically relevant direct inhibition
[2]; testosterone 6β-hydroxylase
  Direct inhibition of CYP3A4/5: weak direct inhibition
  Estimated IC50: > 191 µg/mL
[2]; testosterone 6β-hydroxylase, read-out: Estimated IC50
  IC50: > 600 µM
[3]
  Direct inhibition of CYP2C19: No clinically relevant direct inhibition
[4]
  Direct inhibition of CYP2C8: No clinically relevant direct inhibition
[5]; CYP2B6
  Estimated IC50: > 191 µg/mL
[5]; CYP2B6, read-out: Estimated IC50
  IC50: > 600 µM
[5]; in vitro
  Direct inhibition of CYP2B6: weak direct inhibition

## COCCCCCCCCCN1C[C@H](O)[C@@H](O)[C@H](O)[C@H]1CO [UV-4B, N-(9’-methoxynonyl)-1-deoxynojirimycin hydrochloride]
[6]; [13]
  AST: −
  Decreased thymus weight: −
  Lymphocyte depletion: −
  PLT: −
[6]; dog, 10 TID mg/kg (NOAEL), Day 28 (Recovery), females
  Decreased thymus weight: −(F)
[6]; dog, 10 TID mg/kg (NOAEL), Day 28 (Recovery), males
  Decreased thymus weight: ↓(M)
[6]; [14]
  ALT: −
  AST: −
  Inverted AST/ALT ratio: −
  Lymphoid depletion in thymus, spleen, lymph nodes and GALT: −
  Nonformed feces: −
  PLT: −
  Reticulocyte count: −
  aPTT: −
[6]; [15]
  Increase in ALT: up to 2.9 x BL
  Increase in AST: up to 9.7 x BL
  Increase in aPTT: 2.2 x BL
[6]; dogs, 14 days of TID administration, ref Investigator’s Brochure (IB)
  NOAEL: 30 mg/kg/day
[6]; dogs, 14 days, lowest dose exceeded the NOEL, ref Investigator’s Brochure (IB)
  No observed effect level (NOEL): < 2 mg/kg/dose TID
[6]; dogs, 14 days, ref Investigator’s Brochure (IB)
  NOAEL: 10 mg/kg/dose TID
[6]; dogs, end of dosing phase, at NOAEL 30 mg/kg/day, ref Investigator’s Brochure (IB)
  Average (male and female) AUC(0-8): 10,940 ng•h/mL
[7]
  CNS assessments: no adverse treatment-related effects
[8]
  Inhibition of hERG potassium channel: did not inhibit
[9]
  Neurologic finding: tremors
[10]; mice, 14 days of TID administration, ref Investigator’s Brochure (IB)
  NOAEL: 300 mg/kg/day
[10]; mice, 14 days, a NOEL was not present at this dose level, ref Investigator’s Brochure (IB)
  No observed effect level (NOEL): < 25 mg/kg/dose
[10]; [16]
  AUC(0-8): 54,435 ng•h/mL
  Mean Cmax: 32,617 ng/mL
[10]; [17]
  Decreased thymus weight (M): −
  Follicular epithelium vacuolation in thyroid: −
  Lymphoid depletion of the thymus (M): −
[10]; [18]
  Decreased thymus weight (M): ↓ (M)
  Lymphoid depletion of the thymus (M): P (M)
[10]; [19]
  Decrease in red cell mass (RBC Count, HGB, and HCT): −
  Decrease in thymus weight: −
  Follicular epithelium vacuolation in thyroid: −
  Lymphoid depletion in thymus: −
  Neutrophilic infiltration and erosion/ulcer rectum (F): −
[11]; printed men
  Dose with increased WBC and lymphocyte count: ≥ 10 mg/kg/dose, TID
[11]; women [sic]
  Dose with swollen paws/legs and perioral appearance and red skin, paws, and/or feet: < 60 mg/kg/dose, TID
[11]
  Cardiovascular Effects: none observed
  Dose with decreased PLT and reticulocyte count: ≥ 10 mg/kg/dose, TID
  Dose with erosion/ulcer, inflammation, decreased mucus in stomach, hyperplasia/hyperkeratosis: ≥ 25 mg/kg/dose, TID
  Dose with extramedullary hematopoiesis decreased in spleen and liver: 60 mg/kg/dose, TID
  Dose with increased AST and ALT: ≥ 10 mg/kg/dose, TID
[12]
  HED of 60 mg/kg/dose in rats: 580 mg
